# Measurements as given in PubChem BioAssay (NCI).
#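 96-well plates; 48 h exposure; 5 concentrations. Endpoints by linear interpolation between flanking doses. Not reached: highest tested concentration assigned. GI50: concentration for 50% inhibition of growth. TGI: concentration producing complete growth inhibition.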
# Assays:
# Assay in all cases: inhibition of tumour cell growth, NCI panel, 48 h
# [1] = system: MDA-MB-435
# [2] = system: SNB-75 CNS
# [3] = system: K-562 leukemia
# [4] = system: CAKI-1 renal
# [5] = system: MOLT-4 leukemia
# [6] = system: PC-3 prostate
# [7] = system: KM12 colon
# [8] = system: IGROV1 ovarian
# [9] = system: NCI-H226 lung
# [10] = system: SR leukemia
# [11] = system: SK-OV-3 ovarian
# [12] = system: SF-295 CNS
# [13] = system: UACC-257 melanoma
# [14] = system: SK-MEL-2 melanoma
# [15] = system: HCT-116 colon
# [16] = system: SF-539 CNS
# [17] = system: M14 melanoma
# [18] = system: HOP-62 NSCLC
# [19] = system: SK-MEL-28 melanoma
# [20] = system: RXF 393 renal
# [21] = system: SNB-19 CNS
# [22] = system: COLO 205 colon
# [23] = system: HT29 colon
# [24] = system: HOP-92 NSCLC
# [25] = system: UO-31 renal
# [26] = system: MCF7 breast
# [27] = system: MDA-MB-231 breast
# [28] = system: HL-60(TB) leukemia
# [29] = system: NCI-H522 lung
# [30] = system: A549 NSCLC
# [31] = system: NCI/ADR-RES ovarian
# [32] = system: HCC-2998 colon
# [33] = system: NCI-H23 lung
# [34] = system: NCI-H460 lung
# [35] = system: MALME-3M melanoma
# [36] = system: A498 renal
# [37] = system: UACC-62 melanoma
# [38] = system: OVCAR-8 ovarian
# [39] = system: 786-0 renal
# [40] = system: SN12C renal
# [41] = system: T-47D breast
# [42] = system: OVCAR-4 ovarian
# [43] = system: SK-MEL-5 melanoma
# [44] = system: ACHN renal
# [45] = system: HCT-15 colon
# [46] = system: U251 CNS
# [47] = system: OVCAR-5 ovarian
# [48] = system: LOX IMVI melanoma
# [49] = system: TK-10 renal
# [50] = system: RPMI-8226 leukemia
# [51] = system: BT-549 breast
# [52] = system: CCRF-CEM leukemia
# [53] = system: HS 578T breast
# [54] = system: SW-620 colon
# [55] = system: SF-268 CNS
# [56] = system: OVCAR-3 ovarian
# [57] = system: DU-145 prostate
structure (smiles),measurement,setting,value
Cn1cc(C2=C(c3cccc(OC[C@@H](O)CO)c3)C(=O)NC2=O)c2ccccc21,GI50,[1],> 25 µM
same,TGI,[1],> 25 µM
same,GI50,[2],0.0944 µM
same,TGI,[2],> 25 µM
same,GI50,[3],17.3 µM
same,TGI,[3],> 25 µM
same,GI50,[4],15.3 µM
same,TGI,[4],> 25 µM
same,GI50,[5],16.1 µM
same,TGI,[5],> 25 µM
same,GI50,[6],> 25 µM
same,TGI,[6],> 25 µM
same,GI50,[7],11 µM
same,TGI,[7],> 25 µM
same,GI50,[8],> 25 µM
same,TGI,[8],> 25 µM
same,GI50,[9],16.9 µM
same,TGI,[9],> 25 µM
same,GI50,[10],> 11.2 µM
same,TGI,[10],> 25 µM
same,GI50,[11],> 18.3 µM
same,TGI,[11],> 25 µM
same,GI50,[12],3.59 µM
same,TGI,[12],> 25 µM
same,GI50,[13],> 25 µM
same,TGI,[13],> 25 µM
same,GI50,[14],> 25 µM
same,TGI,[14],> 25 µM
same,GI50,[15],> 15.8 µM
same,TGI,[15],> 25 µM
same,GI50,[16],> 19.4 µM
same,TGI,[16],> 25 µM
same,GI50,[17],> 25 µM
same,TGI,[17],> 25 µM
same,GI50,[18],> 25 µM
same,TGI,[18],> 25 µM
same,GI50,[19],> 25 µM
same,TGI,[19],> 25 µM
same,GI50,[20],2.08 µM
same,TGI,[20],> 25 µM
same,GI50,[21],> 25 µM
same,TGI,[21],> 25 µM
same,GI50,[22],> 18.3 µM
same,TGI,[22],> 25 µM
same,GI50,[23],> 25 µM
same,TGI,[23],> 25 µM
same,GI50,[24],> 25 µM
same,TGI,[24],> 25 µM
same,GI50,[25],> 19.1 µM
same,TGI,[25],> 25 µM
same,GI50,[26],2.07 µM
same,TGI,[26],> 25 µM
same,GI50,[27],> 25 µM
same,TGI,[27],> 25 µM
same,GI50,[28],> 25 µM
same,TGI,[28],> 25 µM
same,GI50,[29],24.8 µM
same,TGI,[29],> 25 µM
same,GI50,[30],> 25 µM
same,TGI,[30],> 25 µM
same,GI50,[31],> 25 µM
same,TGI,[31],> 25 µM
same,GI50,[32],> 25 µM
same,TGI,[32],> 25 µM
same,GI50,[33],> 25 µM
same,TGI,[33],> 25 µM
same,GI50,[34],> 25 µM
same,TGI,[34],> 25 µM
same,GI50,[35],> 25 µM
same,TGI,[35],> 25 µM
same,GI50,[36],0.656 µM
same,TGI,[36],> 5.77 µM
same,GI50,[37],> 25 µM
same,TGI,[37],> 25 µM
same,GI50,[38],> 25 µM
same,TGI,[38],> 25 µM
same,GI50,[39],14 µM
same,TGI,[39],> 25 µM
same,GI50,[40],> 23 µM
same,TGI,[40],> 25 µM
same,GI50,[41],> 22.9 µM
same,TGI,[41],> 25 µM
same,GI50,[42],> 16.4 µM
same,TGI,[42],> 25 µM
same,GI50,[43],> 8.72 µM
same,TGI,[43],> 25 µM
same,GI50,[44],16.5 µM
same,TGI,[44],> 25 µM
same,GI50,[45],> 25 µM
same,TGI,[45],> 25 µM
same,GI50,[46],> 15.5 µM
same,TGI,[46],> 25 µM
same,GI50,[47],> 25 µM
same,TGI,[47],> 25 µM
same,GI50,[48],14.8 µM
same,TGI,[48],> 25 µM
same,GI50,[49],> 25 µM
same,TGI,[49],> 25 µM
same,GI50,[50],> 25 µM
same,TGI,[50],> 25 µM
same,GI50,[51],12.3 µM
same,TGI,[51],> 25 µM
same,GI50,[52],> 22.5 µM
same,TGI,[52],> 25 µM
same,GI50,[53],1.39 µM
same,TGI,[53],> 25 µM
same,GI50,[54],> 20.1 µM
same,TGI,[54],> 25 µM
same,GI50,[55],> 25 µM
same,TGI,[55],> 25 µM
same,GI50,[56],11.2 µM
same,TGI,[56],> 25 µM
same,GI50,[57],> 25 µM
same,TGI,[57],> 25 µM
